From patent US6391280B1, “J chain polypeptide targeting molecule linked to an imaging agent” (Epicyte Pharmaceutical, Inc., priority 1997, dated 2002) come the findings set out here.

Marks after values point to notes of the source that are not given here.

The series can be described thus: Molar Relaxivities 1/T1 of Paramagnetic Compounds. The following applies: in water at 10.7 MHz, 37° C. (values marked *). In kind it is physicochemical.
Turning to `O=S(=O)([O-])c1ccc(-c2c3nc(c(-c4ccc(S(=O)(=O)[O-])cc4)c4ccc([n-]4)c(-c4ccc(S(=O)(=O)[O-])cc4)c4ccc([n-]4)c(-c4ccc(S(=O)(=O)[O-])cc4)c4nc2C=C4)C=C3)cc1.[Mn+3]` [MnTPPS4], the “Relaxation rate, molar relaxivity 1/T1” value is 10.39* (mMs)^−1.

For `[Cl][Gd]([Cl])[Cl]` [GdCl], the “Relaxation rate, molar relaxivity 1/T1” value was 14.67* (mMs)^−1. The result for `[Cl][Mn][Cl]` [MnCl2] reads 9.32* (mMs)^−1. In the case of `O=C([O-])CN(CCN(CC(=O)[O-])CC(=O)O)CCN(CC(=O)[O-])CC(=O)O.[Gd+3]` [GDDTP A], the “Relaxation rate, molar relaxivity 1/T1” value is 5.05* (mMs)^−1.
